The experiment deals with MCF10A cells. Description: Flow cytometry of cell cycle distribution and DNA synthesis (EdU/DAPI). To be noted: for cell cycle distribution: 24 hours. The format is cell-based, human. The protocol:
(c) A typical profile obtained by flow cytometry of MCF10A cells labelled with EdU and DAPI that indicates the gating applied in order to determine the percentage of cells with sub-G1 DNA content (sub-G1), G1 cells (G1), replicating early-mid S phase cells (Early-Mid S/EdU+), replicating mid-late S phase cells (Mid-Late S/EdU+), cells with S phase DNA content but not replicating (2n<& <4n/EdU−), and cells either in G2 or mitosis (G2/M).(d-f) MCF10A cells were mock treated or treated with 10 μM XL413, in the presence or absence of increasing concentrations of the CDK8 inhibitor BI-1347, for 24 hours. (d) Cells were labelled with EdU for last 30 minutes and DNA synthesis, DNA content and cell cycle distribution were assessed by flow cytometry and analysed using the gating strategy described in above (FIG. 2c). (e) Distribution of cells in the cell cycle. (f) Fluorescence intensity, proportional to EdU incorporation, in individual S phase cells. Long and short horizontal black lines indicate the median and the interquartile range, respectively, extending from the 25th to the 75th percentile for ˜3,810 cells for each condition. Data is from a single experiment.
FIG. 3: CDK8 activity is required for efficient DNA synthesis under conditions of limited CDC7 kinase activity (a-c) MCF10A cells were mock treated or treated with 31 nM BI-1347, in the presence or absence of increasing concentrations of the CDC7 inhibitors, XL413 (a-c) and TAK-931 (d-f), for 24 hours. (a and d) Cells were labelled with EdU for last 30 minutes and DNA synthesis, DNA content and cell cycle distribution were assessed by flow cytometry and analysed using the gating strategy described in FIG. 2c.c (b and e) distribution of cells in the cell cycle. (c and f) Fluorescence intensity, proportional to EdU incorporation, in individual S phase cells. Long and short horizontal black lines indicate the median and the interquartile range, respectively, extending from the 25th to the 75th percentile for ˜4,190 cells for each condition. Data is from a single experiment.
To analyse the cell cycle and DNA synthesis, nascent DNA was labelled by incubating cells with 10 μM EdU for either 20 or 30 minutes prior to harvest, washing with PBS, and then by resuspension in PBS containing 70% EtOH for 1 hour at −20° C. After a PBS wash, incorporated EdU was labelled by incubating cells in click reaction buffer (PBS containing 10 μM 6-Carboxyfluorescine-TEG-azide, 10 mM Sodium-L-ascorbate, 2 mM Copper-II-Sulphate) for 30 minutes protected from light. Cells were washed in PBS containing 1% BSA, 5% Tween 20 and then DNA stained in PBS containing 1% BSA and 1 μg/ml DAPI. All washes involve: centrifugation at 400×g for 5 minutes, removal of supernatant from pellet, resuspension in the appropriate buffer, recentrifugation and removal of supernatant from the pellet prior to the next step.
Fluorescence intensity data for 6-Carboxyfluorescine (488_530_30 nm) and DAPI (405_450_50 nm) were acquired for 10,000 single cells on a BD FACS Canto II and analysed using FlowJo software. To further analyse fluorescence intensity, proportional to EdU incorporation, for individual cells, gates were applied on DAPI-EdU biparametric dot plots to select for EdU positive S phase cells using FlowJo. According to the required analysis these gates included either all S phase cells, or only early or late S phase cells. Fluorescence intensity (488_530_30) values per cell were exported and plotted as scatter dot plots using GraphPad prism. For comparisons of mean fluorescence intensity of a cell population across three biological repeat experiments, all fluorescence intensity values were normalised to the maximum fluorescence intensity of the untreated control sample of each respective experiment to account for absolute differences in EdU staining. […]
(Flow cytometry measures light scatter and fluorescence of single cells or particles in a stream.)

“Also recorded” adds a separate entry of the source.

Regarding `Cl.O=c1[nH]c([C@@H]2CCCN2)nc2c1oc1ccc(Cl)cc12` [XL413], the “rate of DNA synthesis” value is given as “strongly reduced; also recorded: much more profound decrease” and the “rate of DNA synthesis of S phase cells” value is listed as “corresponding decrease”. In addition, the cell cycle distribution result (10 μM XL413 alone) is on record as “accumulation of cells in mid to late S phase”. For the same compound, the cell cycle distribution result (CDC7 inhibitor alone at increasing concentrations, absence of CDK8/CDK19i) is recorded as “dose-dependent accumulation of mid-late S phase cells”. Besides, for the setting “CDC7 inhibitor at increasing concentrations together with the CDK8/CDK19 inhibitor (31 nM BI-1347), all doses tested”, the cell cycle distribution entry is reported as “more pronounced accumulation of cells in mid-late S phase”.

Values taken from US20260137711A1, “COMBINATION THERAPY FOR CANCER” (NATIONAL UNIVERSITY OF IRELAND, GALWAY, priority 2022, published 2026).
